In ChEMBL document CHEMBL2375252, “Novel indoline-2,3-dione derivatives as inhibitors of aminopeptidase N (APN)” (Bioorg Med Chem, 2013):

Experiments:
Aminopeptidase N [1] = molecular target: Aminopeptidase N (Homo sapiens, UniProt P15144); assay: Inhibition of aminopeptidase-N in human ES2 cells using L-leu-p-nitroanilide as substrate incubated for 5 mins prior to substrate addition measured after 30 mins by spectrophotometric analysis; type: cell-based
[2] = Cytotoxicity against human ES2 cells after 48 hrs by MTT assay; conditions: ES-2, 48 h
MDA-MB-231 = assay: cells; conditions: Homo sapiens, MDA-MB-231, 48 h
Description: Cytotoxicity against human MDA-MB-231 cells after 48 hrs by MTT assay

[3] = molecular target: Histone deacetylase 1/3/5/8 (Homo sapiens, UniProt Q13547+O15379+Q9UQL6+Q9BY41); assay: Inhibition of HDAC1/3/5/8 in human HeLa cell extract using Boc-Lys-(acetyl)-AMC as substrate incubated for 5 mins prior to substrate addition measured after 30 mins by fluorometric analysis; type: protein assay
Aminopeptidase N [4] = molecular target: T1, Aminopeptidase N (Sus scrofa, UniProt P15145); assay: Inhibition of pig kidney microsome aminopeptidase-N using L-leu-p-nitroanilide as substrate incubated for 5 mins prior to substrate addition measured after 30 mins by spectrophotometric analysis
T1 sequence (P15145 whole entry): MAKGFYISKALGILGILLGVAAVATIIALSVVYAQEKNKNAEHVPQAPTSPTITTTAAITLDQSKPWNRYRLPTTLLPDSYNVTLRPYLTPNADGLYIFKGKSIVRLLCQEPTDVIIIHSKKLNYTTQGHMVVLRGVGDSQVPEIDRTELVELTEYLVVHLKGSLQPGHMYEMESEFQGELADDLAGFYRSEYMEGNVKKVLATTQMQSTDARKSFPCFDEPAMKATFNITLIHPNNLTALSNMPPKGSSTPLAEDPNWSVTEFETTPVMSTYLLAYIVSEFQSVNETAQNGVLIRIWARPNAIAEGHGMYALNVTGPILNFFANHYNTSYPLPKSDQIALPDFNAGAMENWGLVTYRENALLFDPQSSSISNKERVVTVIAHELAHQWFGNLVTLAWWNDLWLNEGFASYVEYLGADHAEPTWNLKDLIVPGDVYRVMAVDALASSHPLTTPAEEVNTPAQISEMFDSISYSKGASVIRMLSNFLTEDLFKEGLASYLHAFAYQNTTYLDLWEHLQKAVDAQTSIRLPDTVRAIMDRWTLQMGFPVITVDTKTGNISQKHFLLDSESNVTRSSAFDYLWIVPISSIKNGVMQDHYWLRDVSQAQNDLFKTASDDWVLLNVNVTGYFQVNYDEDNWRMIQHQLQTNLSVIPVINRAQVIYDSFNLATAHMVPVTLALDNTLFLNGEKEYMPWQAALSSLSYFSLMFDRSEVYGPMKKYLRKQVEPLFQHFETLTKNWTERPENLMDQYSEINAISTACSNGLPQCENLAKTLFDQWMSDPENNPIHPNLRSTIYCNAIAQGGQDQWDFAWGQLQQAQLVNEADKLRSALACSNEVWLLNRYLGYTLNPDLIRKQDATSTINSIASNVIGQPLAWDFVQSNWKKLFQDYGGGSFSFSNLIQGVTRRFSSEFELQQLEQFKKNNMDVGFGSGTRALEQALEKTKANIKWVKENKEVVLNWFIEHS

Sequence of Aminopeptidase N (Homo sapiens, UniProt P15144) (P15144 whole entry): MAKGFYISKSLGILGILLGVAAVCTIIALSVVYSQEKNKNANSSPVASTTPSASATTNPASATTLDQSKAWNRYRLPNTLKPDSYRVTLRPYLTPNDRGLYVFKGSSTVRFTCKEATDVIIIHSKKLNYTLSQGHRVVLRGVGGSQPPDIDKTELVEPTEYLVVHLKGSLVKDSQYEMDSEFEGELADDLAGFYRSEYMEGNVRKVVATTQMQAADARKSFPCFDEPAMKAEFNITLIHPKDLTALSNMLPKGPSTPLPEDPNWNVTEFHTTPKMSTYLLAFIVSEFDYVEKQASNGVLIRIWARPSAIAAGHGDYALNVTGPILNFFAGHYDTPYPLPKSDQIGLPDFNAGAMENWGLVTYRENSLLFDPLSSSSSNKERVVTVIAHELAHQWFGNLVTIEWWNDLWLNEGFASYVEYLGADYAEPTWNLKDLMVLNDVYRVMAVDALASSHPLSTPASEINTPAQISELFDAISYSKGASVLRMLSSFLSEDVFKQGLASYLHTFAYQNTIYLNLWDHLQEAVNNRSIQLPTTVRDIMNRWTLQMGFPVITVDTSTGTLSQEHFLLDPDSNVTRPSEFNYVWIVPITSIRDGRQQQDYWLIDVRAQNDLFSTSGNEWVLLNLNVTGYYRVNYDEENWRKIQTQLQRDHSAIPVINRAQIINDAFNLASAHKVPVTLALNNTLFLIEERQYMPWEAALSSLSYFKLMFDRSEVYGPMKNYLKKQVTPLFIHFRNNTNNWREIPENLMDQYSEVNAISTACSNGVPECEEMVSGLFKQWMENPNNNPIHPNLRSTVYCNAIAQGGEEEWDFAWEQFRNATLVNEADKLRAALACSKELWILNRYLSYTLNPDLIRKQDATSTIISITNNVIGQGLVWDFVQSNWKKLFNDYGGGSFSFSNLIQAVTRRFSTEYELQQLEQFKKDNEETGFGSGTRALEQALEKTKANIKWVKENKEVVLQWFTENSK

| SMILES | IC50 (Aminopeptidase N [1]) [µM] | IC50 [2] [µM] | IC50 (MDA-MB-231) [µM] | IC50 [3] [µM] | IC50 (Aminopeptidase N [4]) [µM] |
| --- | --- | --- | --- | --- | --- |
| O=C(CN1C(=O)C2(OCCCO2)c2cc(F)ccc21)NO | 97.5 | 457 | 576 | > 100 | 6.71 |
| O=C(CN1C(=O)C2(OCCO2)c2cc(Br)ccc21)N[C@@H](Cc1ccccc1)C(=O)NO |  |  |  |  | 26.4 |
| O=C(CN1C(=O)C2(OCCCCO2)c2cc(Br)ccc21)NO | 12.1 | 409 | 32.9 | > 100 | 0.086 |
| O=C(CN1C(=O)C2(OCCCO2)c2cc(Cl)ccc21)NO | 10.9 | 233 | 259 | > 100 | 1.3 |
| O=C(CN1C(=O)C2(OCCCO2)c2ccccc21)NO |  |  |  |  | 266 |
| CC(C)C[C@H](NC(=O)CN1C(=O)C2(OCCO2)c2cc(Br)ccc21)C(=O)NO |  |  |  |  | 22.5 |
| O=C(CN1C(=O)C2(OCCO2)c2cc(Cl)ccc21)NO | 9.58 | 167 | 177 | > 100 | 0.31 |
| O=C(CN1C(=O)C2(OCCCCO2)c2cc(Cl)ccc21)NO | 3.12 | 212 | 91.5 | > 100 | 0.074 |
| Cc1ccc2c(c1)C1(OCCCO1)C(=O)N2CC(=O)NO |  |  |  |  | 3.33 |
| CC(C)[C@H](NC(=O)CN1C(=O)C2(OCCO2)c2cc(Br)ccc21)C(=O)NO |  |  |  |  | 226 |
| O=C(CNC(=O)CN1C(=O)C2(OCCO2)c2cc(Br)ccc21)NO |  |  |  | 0.33 | 6.6 |
| CC[C@H](C)[C@H](NC(=O)CN1C(=O)C2(OCCO2)c2cc(Br)ccc21)C(=O)NO |  |  |  |  | 631 |
| O=C(CN1C(=O)C2(OCCCO2)c2cc(Br)ccc21)NO | 19.7 | 137 | 55.1 | > 100 | 3.4 |
| O=C(CN1C(=O)C2(OCCO2)c2ccccc21)NO |  |  |  |  | 209 |
| CC(C)C[C@H](NC(=O)[C@@H](O)[C@H](N)Cc1ccccc1)C(=O)O [UBENIMEX] |  | 632 |  |  |  |
| O=C(CN1C(=O)C2(OCCO2)c2cc(Br)ccc21)NO |  |  |  | > 100 |  |
| O=C(CN1C(=O)C2(OCCO2)c2cc(Br)ccc21)NC(C(=O)NO)c1ccccc1 (stereo not drawn) |  |  |  |  | > 1000 |
| O=C(CN1C(=O)C2(OCCO2)c2cc(F)ccc21)NO | 16.2 | 142 | 180 | > 100 | 5.3 |
| O=C(CN1C(=O)C2(OCCCCO2)c2cc(F)ccc21)NO | 15.2 | 553 | 114 | > 100 | 4.06 |
| Cc1ccc2c(c1)C1(OCCO1)C(=O)N2CC(=O)NO |  |  |  |  | 2.63 |
